Test results taken from article PMC11116414, “Impact of secretin receptor homo-dimerization on natural ligand binding” (Nature Communications, 2024).
No end group written: not given here.

System: cysteine-containing SecR(G264A,I268A) constructs
Test: Cysteine trapping with SecR(G264A,I268A) cysteine constructs, intact COS-1 cells
Format: binding, human
Conditions: for Intraloop labeling / Overall labeling: mean ± S.E.M.; for cysteine trapping in ECL3, in words: WT (earlier work) and non-dimerizing SecR
Procedure: In short, 15 µg of each peptide were incubated with 1 mCi of Na^125I for 15 s in borate buffer (pH 9.0) using solid-state N-chlorobenzene sulfonamide (iodination beads), and radioactive peptide products were separated and purified using reversed-phase HPLC, to yield a mono-iodinated peak with a specific radioactivity of 2000 Ci/mmol.
Modified secretin receptor constructs were prepared by mutagenesis of human SecR(G264A,I268A) by introducing cysteine residues to replace each natural residue in the N-terminal stalk region, (extracellular loop 1) ECL1, ECL2, and ECL3 regions of the receptor[21]. Mutagenesis was performed using the QuikChange site-directed mutagenesis kit from Stratagene (La Jolla, CA), with the products verified by direct DNA sequencing.
Cysteine trapping is a technique in which cysteine residues incorporated into distinct positions within a peptide ligand and within its receptor are allowed to form disulfide bonds when two free cysteines are in proximity to each other with necessary distance and geometry. As noted above, this was performed with secretin peptides incorporating cysteines in positions 2, 5, 6 and 7[20],[21], and with a series of SecR mutants incorporating cysteines in all extracellular domains (75 distinct constructs in a TM4 mutant non-dimerizing SecR background). COS-1 cells were grown to approximate 85% confluence in 24-well tissue culture plates, and transfected with cysteine mutant receptor constructs using the PEI method. Assays were started by washing the cells with DMEM containing 5% Fetal Clone II before being incubated with 200 μl radiolabeled cysteine-containing probes (approximately 100,000 cpm per well) for 1.5 h at room temperature. The assays were terminated by washing the cells with ice-cold PBS, pH 7.4, and mixing with 60 µl SDS Laemmli sample buffer not containing dithiothreitol (DTT). Lysates were run on 10% SDS-polyacrylamide gels. Gels were then dried, and bands of interest were visualized by autoradiography, and specific bands were identified, and intensities quantified using ImageJ. Sites having labeling above background were determined using one-way ANOVA with Dunnett’s post-test, with P < 0.001 considered to be significant. The apparent molecular weights of the receptor bands were determined by interpolation with the mobility of the appropriate ProSieve protein markers.

[1] = A292C, ECL2, n = 3-5, Cys5 significant (P < 0.0001)
[2] = F279C, ECL2, % of highest-labeled residue across all constructs, n = 4 (Cys2), 5 (Cys5, Cys6), 3 (Cys7)
[3] = L374C, ECL3, n = 3-5, Cys5, Cys6, Cys7 significant (P < 0.001)
[4] = M366C, ECL3, n = 3-5, Cys5 significant (P < 0.0001)
[5] = W296C, ECL2, n = 3-5, Cys6 significant (P = 0.0003)

“Cys^6-[Tyr^10]secretin(1-27) (HSDGTCTSEYSRLREGARLQRLLQGLV; not fully specified; ends and bridges not checked; also: radioiodinated; UniProt P09683 28-54, looked up, variant F6C L10Y) [Cys^6-Sec, cysteine-containing secretin agonist probe, radioiodinated for cysteine trapping]” was tested, and the Intraloop labeling (A292C, ECL2, n = 3-5) was 29.1 ±17.0 percentage, the Overall labeling [1] was 24.9±17.2 percentage and the Intraloop labeling (D282C, ECL2, n = 3-5) was < 1 percentage. The Overall labeling (D282C, ECL2, n = 3-5) was < 1 percentage, the Intraloop labeling (D364C, ECL3, n = 3-5) was 17.1±8.2 percentage and the Overall labeling (D364C, ECL3, n = 3-5, Cys5 significant (P < 0.0001)) was 16.2±8.4 percentage. The Intraloop labeling (E367C, ECL3, n = 3-5) was 40.8±17.2 percentage, the Overall labeling (E367C, ECL3, n = 3-5) was 35.5±14.9 percentage and the Intraloop labeling (E373C, ECL3, n = 3-5) was 19.9±17.3 percentage. The Overall labeling (E373C, ECL3, n = 3-5) was 13.9±11.4 percentage, the Overall labeling [2] was < 1 percentage and the Intraloop labeling (F358C, ECL3, n = 3-5) was 16.4±12.8 percentage. The Overall labeling (F358C, ECL3, n = 3-5) was 10.2±6.9 percentage, the Intraloop labeling (F371C, ECL3, n = 3-5) was 11.4±11.0 percentage and the Intraloop labeling (F372C, ECL3, n = 3-5) was 19.0±15.7 percentage. The Overall labeling (F372C, ECL3, n = 3-5) was 13.6±10.3 percentage, the Overall labeling (G284C, ECL2, n = 3-5) was < 1 percentage and the Intraloop labeling (I294C, ECL2, n = 3-5) was 10.5±9.5 percentage. The Overall labeling (I294C, ECL2, n = 3-5) was 10.3±9.5 percentage, the Intraloop labeling (I297C, ECL2, n = 3-5) was 30.1±18.4 percentage and the Intraloop labeling (L374C, ECL3, n = 3-5) was 94.8±5.2 percentage. It also gave an Overall labeling [3] of 78.8±9.2 percentage, an Intraloop labeling (M366C, ECL3, n = 3-5) of 56.2±16.4 percentage and an Overall labeling [4] of 48.0±17.7 percentage. For the same substance, the Intraloop labeling (N289C, ECL2, n = 3-5) was 15.8±14.5 percentage, the Overall labeling (N289C, ECL2, n = 3-5) was 15.7±14.5 percentage and the Intraloop labeling (N291C, ECL2, n = 3-5) was < 1 percentage. The Overall labeling (N291C, ECL2, n = 3-5) was < 1 percentage, the Intraloop labeling (Q369C, ECL3, n = 3-5) was 13.0±12.7 percentage and the Intraloop labeling (V283C, ECL2, n = 3-5) was 15.8±13.9 percentage. The Overall labeling (V283C, ECL2, n = 3-5) was 15.5±13.9 percentage, the Intraloop labeling (W286C, ECL2, n = 3-5) was 24.4±19.3 percentage and the Overall labeling (W286C, ECL2, n = 3-5) was 13.4±8.9 percentage. The Intraloop labeling (W295C, ECL2, n = 3-5) was 34.2±0.1 percentage, the Overall labeling (W295C, ECL2, n = 3-5, Cys2, Cys5, Cys7 significant (P < 0.0001)) was 34.1±17.2 percentage and the Intraloop labeling (W296C, ECL2, n = 3-5) was 80.2±19.8 percentage. For the same substance, the Overall labeling [5] was 68.0±20.5 percentage and the “cysteine trapping in ECL3, in words” value was “labeled ECL3 residues”.
With “Cys^7-[Tyr^10]secretin(1-27) (HSDGTFCSEYSRLREGARLQRLLQGLV; not fully specified; ends and bridges not checked; also: radioiodinated; UniProt P09683 28-54, looked up, variant T7C L10Y) [Cys^7-Sec, cysteine-containing secretin agonist probe, radioiodinated for cysteine trapping]” the Intraloop labeling (A290C, ECL2, n = 3-5) was < 1 percentage, the Overall labeling (A290C, ECL2, n = 3-5) was < 1 percentage and the Intraloop labeling (A292C, ECL2, n = 3-5) was < 1 percentage. The Overall labeling [1] was < 1 percentage, the Intraloop labeling (A359C, ECL3, n = 3-5) was 85.3±8.6 percentage and the Overall labeling (A359C, ECL3, n = 3-5, Cys7 significant (P = 0.0004)) was 85.3±8.6 percentage. For the same substance, the Intraloop labeling (A365C, ECL3, n = 3-5) was 66.4±17.1 percentage, the Overall labeling (A365C, ECL3, n = 3-5, Cys5 significant (P < 0.0001)) was 66.4±17.1 percentage and the Intraloop labeling (D282C, ECL2, n = 3-5) was < 1 percentage. The Overall labeling (D282C, ECL2, n = 3-5) was < 1 percentage, the Intraloop labeling (D287C, ECL2, n = 3-5) was 15.7±15.6 percentage and the Intraloop labeling (E363C, ECL3, n = 3-5) was < 1 percentage. For the same substance, the Overall labeling (E363C, ECL3, n = 3-5) was < 1 percentage, the Intraloop labeling (E367C, ECL3, n = 3-5) was < 1 percentage and the Overall labeling (E367C, ECL3, n = 3-5) was < 1 percentage. The Intraloop labeling (E373C, ECL3, n = 3-5) was < 1 percentage, the Overall labeling (E373C, ECL3, n = 3-5) was < 1 percentage and the Intraloop labeling (F279C, ECL2, % of highest labeling within loop, n = 4 (Cys2), 5 (Cys5, Cys6), 3 (Cys7)) was < 1 percentage. For the same substance, the Overall labeling [2] was < 1 percentage, the Intraloop labeling (F358C, ECL3, n = 3-5) was 21.6±20.7 percentage and the Overall labeling (F358C, ECL3, n = 3-5) was 21.6±20.7 percentage. For the same substance, the Intraloop labeling (F360C, ECL3, n = 3-5) was 23.9±23.4 percentage, the Overall labeling (F360C, ECL3, n = 3-5) was 23.9±23.4 percentage and the Intraloop labeling (F372C, ECL3, n = 3-5) was 24.8±24.7 percentage. For the same substance, the Overall labeling (F372C, ECL3, n = 3-5) was 24.8±24.7 percentage, the Intraloop labeling (G284C, ECL2, n = 3-5) was < 1 percentage and the Overall labeling (G284C, ECL2, n = 3-5) was < 1 percentage. For the same substance, the Intraloop labeling (I288C, ECL2, n = 3-5) was 82.9±8.6 percentage, the Overall labeling (I288C, ECL2, n = 3-5, Cys5 and Cys7 significant (P < 0.0001)) was 71.4±10.6 percentage and the Intraloop labeling (I294C, ECL2, n = 3-5) was < 1 percentage. The Overall labeling (I294C, ECL2, n = 3-5) was < 1 percentage, the Intraloop labeling (I297C, ECL2, n = 3-5) was < 1 percentage and the Overall labeling (I297C, ECL2, n = 3-5) was < 1 percentage. For the same substance, the Intraloop labeling (I368C, ECL3, n = 3-5) was < 1 percentage, the Overall labeling (I368C, ECL3, n = 3-5) was < 1 percentage and the Intraloop labeling (L280C, ECL2, n = 3-5) was < 1 percentage. The Overall labeling (L280C, ECL2, n = 3-5) was < 1 percentage, the Intraloop labeling (L374C, ECL3, n = 3-5) was 88.6±11.4 percentage and the Overall labeling [3] was 88.6±11.4 percentage. For the same substance, the Intraloop labeling (M366C, ECL3, n = 3-5) was 55.6±22.3 percentage, the Overall labeling [4] was 55.6±22.3 percentage and the Intraloop labeling (N291C, ECL2, n = 3-5) was < 1 percentage. The Overall labeling (N291C, ECL2, n = 3-5) was < 1 percentage, the Intraloop labeling (P362C, ECL3, n = 3-5) was < 1 percentage and the Overall labeling (P362C, ECL3, n = 3-5) was < 1 percentage. The Intraloop labeling (Q369C, ECL3, n = 3-5) was < 1 percentage, the Overall labeling (Q369C, ECL3, n = 3-5) was < 1 percentage and the Intraloop labeling (S293C, ECL2, n = 3-5) was < 1 percentage. For the same substance, the Overall labeling (S293C, ECL2, n = 3-5) was < 1 percentage, the Intraloop labeling (S361C, ECL3, n = 3-5) was < 1 percentage and the Overall labeling (S361C, ECL3, n = 3-5) was < 1 percentage. For the same substance, the Intraloop labeling (V283C, ECL2, n = 3-5) was < 1 percentage, the Overall labeling (V283C, ECL2, n = 3-5) was < 1 percentage and the Overall labeling (W286C, ECL2, n = 3-5) was < 1 percentage. For the same substance, the Intraloop labeling (W295C, ECL2, n = 3-5) was 92.5±7.5 percentage, the Intraloop labeling (W296C, ECL2, n = 3-5) was < 1 percentage and the Overall labeling [5] was < 1 percentage. The “cysteine trapping in ECL3, in words” value was “labeled ECL3 residues”.
